How the values were obtained:
[1] = target: 5-hydroxytryptamine receptor 2A (Homo sapiens, UniProt P28223); experiment: Affinity of Compounds for 5-HT2A Receptors
Procedure: The affinity of the compounds of the present disclosure for the 5-HT2A receptors was determined by the method of radioligand competition experiment. In the first step, a cell membrane component containing specific 5-HT2A receptor was prepared. A 10 cm dish was used for transfection with 10 ng of the 5-HT2A receptor and 40 μL of PEI. After 48 hours, the 10 cm dish was taken out from the cell incubator and the cultured cells had expressed the 5-HT2A receptor. A vacuum pump was used to suck off the culture medium, 3 mL of lysis buffer was added to each culture dish, and the cells were placed in a 4° C. cold room for 10 minutes. After the cells were detached, the cells were transferred to a 15 mL centrifuge tube and centrifuged at 1500 rpm for 5 minutes at 4° C., and the supernatant was discarded. The cell pellet was transferred to a tissue homogenizer, and 3 mL of lysis buffer was added and fully ground until the cells were broken. Then, cell suspension was equally aliquoted into several EP tubes, centrifuged at 12000 rpm for 5 minutes at 4° C., and the supernatant was discarded. The precipitate was the cell membrane component containing the 5-HT2A receptor. […] First, a standard binding buffer was added to the cell membrane component containing the 5-HT2A receptor, and the cell membrane was disrupted and resuspended with an electric tissue homogenizer. […]

[2] = target: D(2) dopamine receptor (Homo sapiens, UniProt P14416); experiment: Affinity of Compounds for Dopamine D2 Receptors
D(2) dopamine receptor, sequence (P14416 whole entry): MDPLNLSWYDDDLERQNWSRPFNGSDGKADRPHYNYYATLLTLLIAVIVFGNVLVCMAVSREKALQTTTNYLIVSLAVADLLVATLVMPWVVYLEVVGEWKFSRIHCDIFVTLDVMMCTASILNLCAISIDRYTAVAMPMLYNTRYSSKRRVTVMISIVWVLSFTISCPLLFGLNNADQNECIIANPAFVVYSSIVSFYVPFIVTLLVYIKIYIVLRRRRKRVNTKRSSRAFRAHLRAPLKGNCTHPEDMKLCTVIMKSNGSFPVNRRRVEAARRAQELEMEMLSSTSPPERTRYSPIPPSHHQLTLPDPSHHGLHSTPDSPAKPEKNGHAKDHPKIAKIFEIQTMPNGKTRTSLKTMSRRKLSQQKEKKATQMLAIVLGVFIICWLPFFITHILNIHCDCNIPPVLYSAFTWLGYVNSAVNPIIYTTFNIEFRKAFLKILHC
Procedure: The affinity of the compounds of the present disclosure for the dopamine D2 receptors was determined by the method of radioligand competition experiment. In the first step, a cell membrane component containing specific dopamine D2 receptors was prepared. A 10 cm culture dish was used for transfection with 10 ng of the dopamine D2 receptors and 40 μL of polyethylenimine (PEI hereafter). After 48 hours, the 10 cm culture dish was taken out from the cell culture incubator and the cultured cells had expressed the dopamine D2 receptors. A vacuum pump was used to suck off the culture medium, 3 mL of lysis buffer was added to each culture dish, and the cells were placed in a 4° C. cold room for 10 minutes. After the cells were detached, the cells were transferred to a 15 mL centrifuge tube and centrifuged at 1500 rpm for 5 minutes at 4° C., and the supernatant was discarded. The cell pellet was transferred to a tissue homogenizer, and 3 mL of lysis buffer was added and fully ground until the cells were broken. Then, cell suspension was equally aliquoted into several EP tubes, centrifuged at 12000 rpm for 5 minutes at 4° C., and the supernatant was discarded. The precipitate was the cell membrane component containing the dopamine D2 receptors. […]

5-hydroxytryptamine receptor 2A, sequence (P28223 whole entry): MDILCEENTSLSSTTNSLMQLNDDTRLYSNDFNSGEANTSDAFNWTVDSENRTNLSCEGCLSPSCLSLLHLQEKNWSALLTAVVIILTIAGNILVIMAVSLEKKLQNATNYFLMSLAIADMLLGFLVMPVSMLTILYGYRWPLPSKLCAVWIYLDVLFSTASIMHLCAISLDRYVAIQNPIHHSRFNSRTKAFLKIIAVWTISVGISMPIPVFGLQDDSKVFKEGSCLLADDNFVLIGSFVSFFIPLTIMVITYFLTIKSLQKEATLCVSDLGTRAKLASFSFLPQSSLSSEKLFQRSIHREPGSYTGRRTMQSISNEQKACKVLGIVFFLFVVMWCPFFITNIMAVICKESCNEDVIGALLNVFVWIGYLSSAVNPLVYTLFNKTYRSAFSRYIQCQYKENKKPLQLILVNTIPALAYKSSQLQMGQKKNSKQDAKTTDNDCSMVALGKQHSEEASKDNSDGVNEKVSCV

c1ccc(-c2cccc(CN3CCN4c5cccc6scc(c56)CC4C3)c2)cc1 (configuration not stated) [US20240383913, Compound I-7] showed a Ki [1] of 910 nM and a Ki [2] of 310 nM.
